In patent publication US4771041A, “Method for combating virus infection” (priority 1976, dated 1988):

Legend:
[1] = test system: herpes simplex type 2 patient isolates; test: Herpes simplex type 2 plaque reduction assay on SIRC monolayers; format: cell-based; conditions: Human alphaherpesvirus 2
Experimental: The inhibition of influenza virus and herpes virus by phosphonoformic acid has been measured as plaque reaction according to the following procedures.
The plaque reduction assay for herpes simplex type 1 was performed on GMK (Green Monkey Kidney) cells as described by Ejereito et el., J. Gen. Virol. 2 (1968) 357. Monolayers on 5 cm petri dishes were used and after virus adsorption phosphonoformic acid was added in the medium.
I. Inhibition by phosphonoformic acid of herpes simplex type 2 plaque
The plaque reduction assay for herpes simplex type 2 was performed in the same way as in experiment H. The results are shown in Table 9.

[2] = molecular target: T1, reverse transcriptase from SSV (Woolly monkey sarcoma virus, UniProt P03359); test: Cell-free reverse transcriptase inhibition, SSV; format: biochemical, simian sarcoma virus; conditions: template/primer (rA)n.(dT)10, read-out: Percent inhibition
T1 construct: Reverse transcriptase from various retroviruses have been tested in cell-free assays
Experimental: (§1) Reverse transcriptase from various retroviruses have been tested in cell-free assays for inhibition by phosphonoformic acid and phosphonoacetic acid. The assay conditions have been described by Collaborative Research, Inc, 1365 Main Street, Waltham, Mass., USA "Assay kit for mammalian viral reverse transcriptase". BLV and VV were prepared in this laboratory and all other viruses and viral enzyme were obtained from Dr. K Nilsson, Department of Pathology, University of Uppsala and from Boehringer Mannheim, Germany. Phosphonoformic acid (PFA) and phosphonoacetic acid (PAA) were added at pH 7.2 to the reaction mixtures at the start of the reaction.
(§2) Rauscher murine leukemia virus; RMuLV, visna virus; VV, avian myeloblastosis virus; AMV, bovine leukemia virus; BLV, baboon endogenous virus; BaEV, simian sarcoma virus; SSV.

[3] = molecular target: T2, reverse transcriptase from BLV (Bovine leukemia virus, UniProt P03361); test: Cell-free reverse transcriptase inhibition, BLV; format: biochemical; conditions: template/primer (rA)n.(dT)10, read-out: Percent inhibition
T2 construct: Reverse transcriptase from various retroviruses have been tested in cell-free assays; made in house
Experimental: as §1, §2

T1 sequence (P03359 642-1310): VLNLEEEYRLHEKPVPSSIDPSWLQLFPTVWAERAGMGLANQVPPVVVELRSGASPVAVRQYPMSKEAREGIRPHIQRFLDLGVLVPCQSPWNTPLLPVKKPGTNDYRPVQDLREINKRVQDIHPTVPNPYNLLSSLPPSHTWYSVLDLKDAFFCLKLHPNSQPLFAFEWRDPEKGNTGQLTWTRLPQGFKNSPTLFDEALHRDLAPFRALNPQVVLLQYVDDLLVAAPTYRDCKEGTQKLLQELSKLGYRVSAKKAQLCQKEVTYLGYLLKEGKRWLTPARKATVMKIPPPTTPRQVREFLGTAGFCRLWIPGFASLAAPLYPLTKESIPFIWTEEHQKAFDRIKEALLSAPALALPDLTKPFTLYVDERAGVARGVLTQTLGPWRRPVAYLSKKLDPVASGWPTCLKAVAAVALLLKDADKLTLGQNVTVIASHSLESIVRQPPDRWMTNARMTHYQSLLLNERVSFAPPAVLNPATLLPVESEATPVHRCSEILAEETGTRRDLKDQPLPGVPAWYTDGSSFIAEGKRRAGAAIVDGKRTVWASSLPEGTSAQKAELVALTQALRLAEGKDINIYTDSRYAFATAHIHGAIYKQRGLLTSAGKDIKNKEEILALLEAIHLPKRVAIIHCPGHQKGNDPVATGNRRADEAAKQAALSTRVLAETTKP
T2 sequence (P03361 546-1120): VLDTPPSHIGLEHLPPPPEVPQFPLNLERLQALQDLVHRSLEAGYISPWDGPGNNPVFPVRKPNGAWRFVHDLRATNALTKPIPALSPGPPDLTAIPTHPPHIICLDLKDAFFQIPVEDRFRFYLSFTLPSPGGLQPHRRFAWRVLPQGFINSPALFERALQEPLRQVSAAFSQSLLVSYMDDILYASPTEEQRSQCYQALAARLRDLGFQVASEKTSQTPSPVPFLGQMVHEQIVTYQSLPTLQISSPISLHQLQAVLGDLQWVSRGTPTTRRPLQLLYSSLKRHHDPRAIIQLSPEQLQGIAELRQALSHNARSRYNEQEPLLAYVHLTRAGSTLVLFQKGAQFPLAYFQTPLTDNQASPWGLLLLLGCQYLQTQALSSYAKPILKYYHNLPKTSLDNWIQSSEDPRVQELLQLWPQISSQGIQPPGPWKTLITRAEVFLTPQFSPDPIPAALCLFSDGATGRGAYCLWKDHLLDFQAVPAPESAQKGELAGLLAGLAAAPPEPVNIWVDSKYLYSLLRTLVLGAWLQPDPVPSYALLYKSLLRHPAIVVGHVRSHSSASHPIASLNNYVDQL

O=C(O)P(=O)(O)O [phosphonoformic acid]
inhibition at 500 µM [1]: 99.9% | inhibition at 10 µM ([2]; 10 μM): 92% | inhibition at 100 µM ([2]; 100 μM): > 99% | inhibition at 500 µM ([2]; 500 μM): > 99% | inhibition at 100 µM ([3]; 100 μM): 88% | inhibition at 500 µM ([3]; 500 μM): 93%
